Results published in US5434186A, “Carboxylic acid leukotriene B4 antagonists” (Hoffmann-La Roche Inc., priority 1993, dated 1995).
Like-named read-outs stand apart in the source and are kept apart here.

What was measured:
[1] = system: LTB4 -induced bronchoconstriction; experiment: Guinea Pig Bronchoconstriction In Vivo (LTB4-induced); design: species or system guinea pig (Hartley strain); details: Cavia porcellus, po, read-out: ID50 (mg/kg), p.o., LTB4-induced bronchoconstriction
[2] = system: LTB4 -induced bronchoconstriction; experiment: as above; design: species or system guinea pig (Hartley strain); details: Cavia porcellus, iv, i.v. five minutes prior to LTB4 (1 μg/kg i.v.), read-out: ID50 (mg/kg), i.v., LTB4-induced bronchoconstriction
Description: Male guinea pigs (Hartley strain) weighing 300 to 500 g are anesthetized with urethane (2 g/kg) intraperitoneally and a polyethylene cannula is inserted into the jugular vein for drug administration. Tracheal pressure is recorded from a cannula inserted into the trachea and connected to a Gould P23ID pressure transducer. After surgical preparation of the animals, a period of time is allowed for pulmonary functions to stabilize. The test compound is administered intravenously five minutes prior to leukotriene B4 administration according to the following protocol: Animals are paralyzed with succinylcholine (1.2 mg/kg i.v.) and mechanically respirated (Harvard rodent respirator) at 40 breaths/minute and 2.5 cc tidal volume. Propranolol (0.1 mg/kg) is then administered intravenously one minute prior to leukotriene B4 administration. Animals are then challenged with an intermediate constrictory dose of leukotriene B4 (1 μg/kg) delivered intravenously.
The change (cm H2 O) between pre and peak ventilatory pressure readings is averaged for five control and five drug treated animals. The percent inhibition is calculated from the formula:
((Control-Drug Treated)/Control)×100
When representative compounds of formula I of the invention were utilized as the test compounds the following results were obtained: […]

LTB4 Receptor = molecular target: T1, LTB4 Receptor (Homo sapiens, UniProt Q15722); experiment: LTB4 Receptor Binding Assay (inhibition of 3H-LTB4 binding, human neutrophils); details: 0.5 nM 3H-LTB4, 45 minutes on ice, isolated human neutrophils
T1 construct: Isolated human neutrophils in Gey's salt solution; endogenous in cells; host or cells: human neutrophils isolated from blood (90-95% neutrophils)
T1 sequence (Q15722 whole entry): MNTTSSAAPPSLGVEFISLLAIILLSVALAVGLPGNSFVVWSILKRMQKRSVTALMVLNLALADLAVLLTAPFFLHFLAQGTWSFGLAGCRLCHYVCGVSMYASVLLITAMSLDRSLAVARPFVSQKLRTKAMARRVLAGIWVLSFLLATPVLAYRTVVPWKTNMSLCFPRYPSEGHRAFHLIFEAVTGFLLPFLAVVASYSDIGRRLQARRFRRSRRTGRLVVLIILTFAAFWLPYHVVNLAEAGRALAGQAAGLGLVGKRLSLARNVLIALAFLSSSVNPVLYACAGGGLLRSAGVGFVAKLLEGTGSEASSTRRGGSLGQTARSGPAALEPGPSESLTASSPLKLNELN
Description: Binding assays can be performed in microtiter wells. Isolated human neutrophils in Gey's salt solution are incubated on ice for 45 minutes with 0.5 nM ^3 H-LTB4 in the presence or absence of test compounds. Assays are terminated by adding 12 ml ice cold 50 mM Tris (pH 7.4) followed by rapid filtration under vacuum through GF/C filters. Radioactivity is determined by scintillation counting. Non specific binding is defined as the binding not displaced by 100 fold excess of unlabelled LTB4. Specific binding is defined as the difference between total binding and non-specific binding. Non linear analysis of the binding data is performed using LIGAND (Munson and Rodbard, 1980). Ki (Inhibition Constant) values were determined using the Cheng-Prusoff relationship (Cheng and Prusoff, 1973).
(§1) Human neutrophils are prepared from citrated or heparinized blood. The blood was diluted 1:1 with Hank's balanced salt solution (HBSS) minus calcium and magnesium and underlayed with 10 ml lymphocyte separation medium (Organon Teknika), followed by centrifugation at 500× g for 30 min., at room temperature. Supernatants are removed down to the red blood cell pellet. HBSS minus calcium and magnesium are added to give 25 ml. To this are added 25 ml 6% dextran in 0.85% NaCl. Samples are mixed and allowed to stand 20 min at room temperature. Supernatants are removed and centrifuged at 500× g for 5 min at 4° C. Pellets are resuspended with 20 ml 0.2% saline for 20 sec followed by the addition of 20 ml 1.6% saline. Samples are centrifuged at 500× g for 5 min at 4° C. The lysis is repeated and the cells (90-95% neutrophils) are resuspended at 2× 10^6 cell/ml in GEY's salt solution.

[3] = system: LTB4 mediated calcium fluxes in human neutrophils; experiment: Calcium Flux Assay (inhibition of LTB4 mediated calcium fluxes in human neutrophils); assay type: cell-based; details: Neutrophil; Fura2 labelled human neutrophils, 2.4 nM LTB4
Description: as §1
LTB4 induced changes in intracellular calcium concentration are measured using Fura2 labelled human neutrophils. Cells at a concentration of 2-5×10^6 /ml are labelled with 5 μM Fura2 for 30 minutes in Hank's balanced salt solution without calcium and magnesium. The cells are washed and resuspended at a final concentration of 1-2×10^7 cells/ml in Gey's solution. Calcium fluxes are initiated by the addition of 2.4 nM LTB4. Test compounds at appropriate concentrations are added to the cells just prior to the addition of LTB4. […] Fluorescence measurements are made in a Perkin Elmer model LS-5B spectrofluorimeter at a temperature setting of 37° C. Calcium concentrations are determined using the ratio method (ratio of cell fluorescence to media fluorescence).
When representative compounds of formula I of the invention were tested, the results set forth in Table H and expressed as inhibition of LTB4 mediated calcium fluxes in human neutrophils, were obtained.

CCCCCc1c(OCCCCCOc2ccccc2CCC(=O)O)ccc2c1OCCC2=O [Example 118, 2-[5-[(3,4-Dihydro-4-oxo-8-pentyl-2H-1-benzopyran-7-yl)oxy]pentyloxy]benzenepropanoic Acid]
ED50 [1]: > 10 mg/kg | ED50 [2]: 0.18 mg/kg | Ki (LTB4 Receptor): 607 nM

CCCc1c(OCCCCCOc2ccc(CCCCC(=O)O)cc2CCC(=O)O)ccc2c1OCCC2=O [Example 215, 3-(2-Carboxyethyl)-4-[[5-[(3,4-dihydro-4-oxo-8-propyl-2H-1-benzopyran-7-yl)oxy]pentyl]oxy]benzenepentanoic Acid]
ED50 [1]: 4.65 mg/kg | ED50 [2]: 0.24 mg/kg | Ki (LTB4 Receptor): 3 nM

CCCc1c(OCCCCCCc2cccc(OCC(=O)O)c2CCC(=O)O)ccc2c1OCCC2=O [Example 152, 2-(Carboxymethoxy)-6-[6-[(3,4-dihydro-4-oxo-8-propyl-2H-1-benzopyran-7-yl)oxy]hexyl]benzenepropanoic Acid]
ED50 [2]: 2 mg/kg | Ki (LTB4 Receptor): 1 nM | IC50 [3]: 3 nM

O=C(O)CCc1ccccc1OCCCCCOc1ccc2c(c1CCCc1ccccc1)OCCC2=O [Example 195, 2-[[5-[[3,4-Dihydro-4-oxo-8-(3-phenylpropyl)-2H-1-benzopyran-7-yl]oxy]pentyl]oxy]benzenepropanoic Acid]
ED50 [1]: 5.8 mg/kg | ED50 [2]: 0.04 mg/kg | Ki (LTB4 Receptor): 95 nM

CCCc1c(OCCCCCOc2ccccc2CCCC(=O)O)ccc2c1OCCC2=O [Example 145, 2-[5-[(3,4-Dihydro-4-oxo-8-propyl-2H-1-benzopyran-7-yl)oxy]pentyloxy]benzenebutanoic Acid]
ED50 [1]: > 10 mg/kg | ED50 [2]: 0.56 mg/kg | Ki (LTB4 Receptor): 30 nM

O=C(O)CCCCCOc1cccc(CCCCCCOc2ccc3c(c2CCCc2ccccc2)OCCC3=O)c1CCC(=O)O [Example 200, 2-[(5-Carboxypentyl)oxy]-6-[6-[[3,4-dihydro-4-oxo-8-(3-phenylpropyl)-2H-1-benzopyran-7-yl]oxy]hexyl]benzenepropanoic Acid]
ED50 [1]: 0.16 mg/kg | ED50 [2]: 0.06 mg/kg | Ki (LTB4 Receptor): 1 nM

CCCc1c(OCCCCCCc2cccc(OCCCC(C)(C)C(=O)O)c2CCC(=O)O)ccc2c1OCCC2=O [Example 174, 2-[(4-Carboxy-4-methylpentyl)oxy]-6-[6-[(3,4-dihydro-4-oxo-8-propyl-2H-1-benzopyran-7-yl)oxy]hexyl]benzenepropanoic Acid]
ED50 [1]: 1.1 mg/kg | ED50 [2]: 0.22 mg/kg | Ki (LTB4 Receptor): 1 nM

CCCc1c(OCCCCCCc2ccc(CCCCC(=O)O)cc2CCC(=O)O)ccc2c1OCCC2=O [Example 219, 3-(2-Carboxyethyl)-4-[6-[(3,4-dihydro-4-oxo-8-propyl-2H-1-benzopyran-7-yl)oxy]hexyl]benzenepentanoic Acid]
ED50 [1]: > 10 mg/kg | ED50 [2]: 0.08 mg/kg | Ki (LTB4 Receptor): 1 nM

CCCc1c(OCCCCCCc2cccc(OCCCCC(=O)O)c2CCC(=O)O)ccc2c1OCCC2=O [Example 126, 2-(4-Carboxybutoxy)-6-[6-[(3,4-dihydro-4-oxo-8-propyl-2H-1-benzopyran-7-yl)oxy]hexyl]benzenepropanoic Acid]
ED50 [1]: 0.54 mg/kg | ED50 [2]: 0.12 mg/kg | IC50 [3]: 2 nM

CCCc1c(OCCCCCOc2ccc(OCCCC(=O)O)cc2CCC(=O)O)ccc2c1OCCC2=O [Example 47, 5-(3-Carboxypropoxy)-2-[5-[(3,4-dihydro-4-oxo-8-propyl-2H-1-benzopyran-7-yl)oxy]pentyloxy]benzenepropanoic Acid]
ED50 [2]: 3.66 mg/kg | Ki (LTB4 Receptor): 3 nM

CCCc1c(OCc2cccc(COc3ccccc3CCC(=O)O)c2)ccc2c1OCCC2=O [Example 39, 2-[3-[[(3,4-Dihydro-4-oxo-8-propyl-2H-1-benzopyran-7-yl)oxy]methyl]phenylmethoxy]benzenepropanoic Acid]
ED50 [2]: 5.4 mg/kg | Ki (LTB4 Receptor): 100 nM

CCCc1c(OCCCCCOc2ccccc2OCC(=O)O)ccc2c1OCCC2=O [Example 13, [2-[5-[(3,4-Dihydro-4-oxo-8-propyl-2H-1-benzopyran-7-yl)oxy]pentyloxy]phenoxy]acetic Acid]
ED50 [2]: 1.85 mg/kg | Ki (LTB4 Receptor): 70 nM

CCCc1c(OCCCCCOc2cc3c(cc2C(C)=O)CCC(C(=O)O)O3)ccc2c1OCCC2=O (racemic) [Example 11, rac-6-Acetyl-7-[5-[(3,4-dihydro-4-oxo-8-propyl-2H-1-benzopyran-7-yl)oxy]pentyloxy]-3,4-dihydro-2H-1-benzopyran-2-carboxylic Acid]
IC50 [3]: 300 nM

CCCc1c(OCCCCCOc2cccc(CCC(=O)O)c2)ccc2c1OCCC2=O [Example 68, 3-[5-[(3,4-Dihydro-4-oxo-8-propyl-2H-1-benzopyran-7-yl)oxy]pentyloxy]benzenepropanoic Acid]
ED50 [2]: 3.56 mg/kg | Ki (LTB4 Receptor): 60 nM

CCCc1c(OCCCCCOc2ccc3ccc(OCC(=O)O)cc3c2CCC(=O)O)ccc2c1OCCC2=O [Example 226, 7-(Carboxymethoxy)-2-[[5-[(3,4-dihydro-4-oxo-8-propyl-2H-1-benzopyran-7-yl)oxy]pentyl]oxy]-1-naphthalenepropanoic Acid]
ED50 [2]: 4.4 mg/kg | Ki (LTB4 Receptor): 1 nM

CCCc1c(OCCCCOc2ccc(C(=O)c3cccc(C(=O)O)c3)cc2CCC(=O)O)ccc2c1OCCC2=O [Example 24, 5-[(3-Carboxyphenyl)carbonyl]-2-[4-[(3,4-dihydro-4-oxo-8-propyl-2H-1-benzopyran-7-yl)oxy]butoxy]benzenepropanoic Acid]
Ki (LTB4 Receptor): 15 nM | IC50 [3]: 11 nM

CCCc1c(OCCCCCOc2ccc(Cl)cc2CCC(=O)O)ccc2c1OCCC2=O [Example 17, 5-Chloro-2-[5-[(3,4-dihydro-4-oxo-8-propyl-2H-1-benzopyran-7-yl)oxy]pentyloxy]benzenepropanoic Acid]
ED50 [2]: 2.02 mg/kg | Ki (LTB4 Receptor): 36 nM | IC50 [3]: 70 nM

O=C(O)CCc1ccccc1OCCCCCOc1ccc2c(c1Cc1ccccc1)OCCC2=O [Example 73, 2-[5-[[3,4-Dihydro-4-oxo-8-(phenylmethyl)-2H-1-benzopyran-7-yl]oxy]pentyloxy]benzenepropanoic Acid]
ED50 [1]: > 10 mg/kg | ED50 [2]: 0.13 mg/kg | Ki (LTB4 Receptor): 150 nM

CCCc1c(OCCCCCCc2ccccc2CCC(=O)O)ccc2c1OCCC2=O [Example 37, 2-[6-[(3,4-Dihydro-4-oxo-8-propyl-2H-1-benzopyran-7-yl)oxy]hexyl]benzenepropanoic Acid]
ED50 [1]: > 10 mg/kg | ED50 [2]: 0.45 mg/kg

CCCc1c(OCCCCCCOc2ccc(C(=O)c3cccc(C(=O)O)c3)cc2CCC(=O)O)ccc2c1OCCC2=O [Example 22, 5-[(3-Carboxyphenyl)carbonyl]-2-[6-[(3,4-dihydro-4-oxo-8-propyl-2H-1-benzopyran-7-yl)oxy]hexyloxy]benzenepropanoic Acid]
Ki (LTB4 Receptor): 3 nM | IC50 [3]: 1 nM

CCCc1c(OCCCCCCc2ccc(C(=O)CCCC(=O)O)cc2CCC(=O)O)ccc2c1OCCC2=O [Example 211, 3-(2-Carboxyethyl)-4-[6-[(3,4-dihydro-4-oxo-8-propyl-2H-1-benzopyran-7-yl)oxy]hexyl]-δ-oxobenzenepentanoic Acid]
ED50 [2]: 2.39 mg/kg | Ki (LTB4 Receptor): 0.8 nM

CCCc1c(OCCCCCOc2ccc3nc(CCC(=O)O)ccc3c2CCC(=O)O)ccc2c1OCCC2=O [Example 238, 6-[[5-[(3,4-Dihydro-4-oxo-8-propyl-2H-1-benzopyran-7-yl)oxy]pentyl]oxy]-2,5-quinolinedipropanoic Acid]
ED50 [2]: 1.24 mg/kg | Ki (LTB4 Receptor): 2 nM
